In publication PMC7529758, “Over-activation of a nonessential bacterial protease DegP as an antibiotic strategy” (Communications Biology, 2020):
Values after ≈ are worked out from the molar mass of the structure shown. *1 amine or outer side, *2 acyl side, *3 side chain or, on linkers, in order; H or OH if unused. Where a SMILES comes first, the peptide text is derived from it. Bridges are numbered along the chain shown (N, C = ends). Roman numbers before positions name the chains, in order. TBMB = c1c(C[*:1])cc(C[*:3])cc1C[*:2]

Legend:
[1] = biological target: T1, DegP^S210A (Escherichia coli, UniProt P0C0V0, S236A); test: Fluorescence anisotropy binding assay
T1 construct: pET22b-degP(full length; S210A)_6His; 6His (C); made in house
Procedure: Fluorescence anisotropy assay was performed as previously described[14],[22]. Two-fold serial dilutions of activators were mixed with a fluorescence-labeled peptide (^flC18–58 or ^fl45–58, 50 nM; Oregon Green 488 maleimide, Invitrogen) and DegP^S210A (10 μM for ^flC18–58; 80 μM for ^fl45–58). Anisotropy was monitored by using a micro-plate reader (excitation 485 nm, emission 535 nm, Infinite F200pro, Tecan). The assay was performed in triplicates.

[2] = system: E. coli imp4213; test: microbe, parasite or virus in culture; format: cell-based, Escherichia coli; conditions: imp4213, 12 h, LB
Procedure: (§1) The susceptibility of E. coli to activators was analyzed by determining the MICs. Two-fold serial dilutions of activators in LB broth were added to bacteria (OD600 = 0.1) in 96-well plates. Plates were incubated with shaking at 30 or 42 °C. After 12 h of incubation, the MIC was defined as the lowest concentration of the activator to inhibit the growth of bacteria by using a micro-plate reader (Absorbance 600 nm, Infinite M200pro, Tecan). The assay was performed in triplicates.

[3] = system: wild-type Escherichia coli (W3110); test: Growth (OD600) of wild-type cells; format: cell-based; conditions: LB; OD600 after 12 h; 42 °C
Procedure: as §1

[4] = biological target: T2, DegP^S210A (Escherichia coli, UniProt P0C0V0, C83S/C95S/N322C/S236A); test: FRET assay of DegP cage assembly; format: biochemical; conditions: FRET of donor- and acceptor-labeled DegP variants
T2 construct: pET22b-degP(full length; C57S/C69S/N296C/S210A)_6His; 6His (C); made in house; host or cells: E. coli (inferred from the pET plasmid)
Procedure: Fluorescence resonance energy transfer (FRET) assay was performed as previously described[14],[22]. Equimolar amounts of fluorescence donor- and acceptor-labeled DegP^S210A (total 0.1, 1 or 3 μM) was mixed in a buffer containing 50 mM sodium phosphate (pH 8) and 100 mM NaCl. Two-fold serial dilutions of activators were added to the DegP mixtures. Alexa Fluor 555 C2-maleinide and 647 C2-maleinide (life technologies) were used as fluorescence dyes. Cage assembly of DegP was monitored by increased FRET ratio using the micro-plate reader (excitation 520 nm, emission 570 or 670 nm, Infinite M200pro, Tecan). Assays were performed in triplicates.

[5] = system: DegP^WT; test: DegP activation assay with the reporter peptide; format: biochemical, Escherichia coli; conditions: reporter 100 μM
Procedure: DegP activation experiments were performed as previously described[14],[22]. All the in vitro assays were performed in a buffer containing 50 mM sodium phosphate (pH 8) and 100 mM NaCl. Two-fold serial dilutions of the activator were incubated with DegP^WT (1, 3, or 10 μM) for 5 min. After incubation, the reporter peptide (Abz-[…]^NO2D; Abz, 2-aminobenzoic acid; Y^NO2, 3-nitrotyrosine; 100 μM final) was added. DegP activation was monitored by increased fluorescence by using a micro-plate reader (excitation 320 nm, emission 430 nm; Infinite F200pro, Tecan). Assays were performed in triplicates.

[6] = system: E.coli imp4213 strain; format: cell-based, Escherichia coli; conditions: log-phase cells; 2x MIC; both 30 °C and 42 °C; CFU
Procedure: Time-kill experiment was performed by counting the viable bacteria at each time point. The E.coli imp4213 strain was cultured with streptomycin overnight and diluted 1:100 in fresh LB broth. When the OD600 value became 0.01, the activator was added at 2x MIC. The sample was incubated with shaking (180 rpm) at 30 °C or 42 °C, and aliquots were taken after 0, 1, 2, 4, 6, 8, 10, or 12 h. These aliquots were serially diluted (ten-fold) and plated on LB agar plates for colony counts. Experiments were performed in triplicates. The kill curves were plotted with the CFU/mL against time.
Experiments with cells in the stationary phase, however, were performed without dilution of the overnight culture.

T1 sequence (P0C0V0 27-474 S236A): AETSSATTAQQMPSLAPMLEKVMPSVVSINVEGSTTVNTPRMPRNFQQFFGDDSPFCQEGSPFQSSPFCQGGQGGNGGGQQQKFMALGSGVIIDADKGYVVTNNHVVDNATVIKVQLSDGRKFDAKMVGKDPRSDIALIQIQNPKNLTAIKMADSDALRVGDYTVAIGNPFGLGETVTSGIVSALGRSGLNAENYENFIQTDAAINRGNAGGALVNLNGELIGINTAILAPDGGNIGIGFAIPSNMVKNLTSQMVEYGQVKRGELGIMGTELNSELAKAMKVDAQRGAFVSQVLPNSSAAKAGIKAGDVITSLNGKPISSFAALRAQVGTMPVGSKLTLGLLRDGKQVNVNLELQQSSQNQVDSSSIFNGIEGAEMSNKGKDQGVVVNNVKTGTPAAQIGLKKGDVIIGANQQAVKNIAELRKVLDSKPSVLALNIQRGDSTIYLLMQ
T2 sequence (P0C0V0 27-474 C83S/C95S/S236A/N322C): as the sequence (P0C0V0 27-474 S236A) above, with C57S, C69S, N296C counted along it

CC(C)C[C@H](NC(=O)[C@H](CCCCN)NC(=O)[C@H](CCCNC(=N)N)NC(=O)[C@H](Cc1ccc(O)cc1)NC(=O)[C@@H](N)CSCc1cc(CSC[C@H](N)C(=O)N[C@@H](Cc2ccc(O)cc2)C(=O)N[C@@H](CCCNC(=N)N)C(=O)N[C@@H](CCCCN)C(=O)N[C@@H](CC(C)C)C(=O)O)cc(CSC[C@H](N)C(=O)N[C@@H](Cc2ccc(O)cc2)C(=O)N[C@@H](CCCNC(=N)N)C(=O)N[C@@H](CCCCN)C(=O)N[C@@H](CC(C)C)C(=O)O)c1)C(=O)O [TMB_CYRKL] (I: H-CYRKL-OH / II: H-CYRKL-OH / III: H-CYRKL-OH; linker I:1-II:1-III:1 via TBMB)
concentrations that enhance binding of fl18-58 ([1]; DegPS210A 10 μM): 5~ 40 µM
concentrations that interrupt the interaction of fl18-58 ([1]; DegPS210A 10 μM): > 40 µM
concentrations that enhance binding of fl45-58 ([1]; DegPS210A 80 μM): 10~ 80 µM
concentrations that interrupt the interaction of fl45-58 ([1]; DegPS210A 80 μM): > 80 µM
MIC ([2]; 30 °C): 320 µM (≈ 691 µg/mL)
MIC ([2]; Fig. 3a and Supplementary Fig. 6b (30 °C and 42 °C)): 320 to 640 µM
growth of wild-type E. coli W3110 [3]: did not inhibit growth
assembly of DegP cages [4]: assemble DegP cages
increase of the cleavage rate compared with Lpp^+Leu and TMB_CKYRKL [5]: at least ten times more
activation of DegP (cleavage rate of the reporter peptide) ([5]; DegP 1 or 10 μM, increasing concentrations): activation was observed
reduction of the number of viable cells [6]: two orders of magnitude
